# Source: ChEMBL document CHEMBL5126615, “Identification of RAD51-BRCA2 Inhibitors Using N-Acylhydrazone-Based Dynamic Combinatorial Chemistry” (ACS Med Chem Lett, 2022)
# pEC50: −log10 of the molar value. Activity calls are given as the source filed them. The calls are words filed in the database; no cut-off is given here.
# Molecular target: T1, DNA repair protein RAD51 homolog 1 (Homo sapiens) (UniProt Q06609)
# T1 sequence (whole entry): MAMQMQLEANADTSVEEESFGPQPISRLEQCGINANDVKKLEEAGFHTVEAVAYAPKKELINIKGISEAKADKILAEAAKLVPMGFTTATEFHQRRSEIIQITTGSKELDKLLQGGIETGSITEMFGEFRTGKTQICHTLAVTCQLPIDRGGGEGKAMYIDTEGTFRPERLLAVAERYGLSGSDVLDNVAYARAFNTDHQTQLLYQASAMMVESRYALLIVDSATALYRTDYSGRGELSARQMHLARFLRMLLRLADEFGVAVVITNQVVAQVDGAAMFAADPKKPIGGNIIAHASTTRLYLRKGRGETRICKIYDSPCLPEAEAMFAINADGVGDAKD
# Test: Binding affinity to recombinant human His-tagged RAD51 expressed in Escherichia coli Rosetta2(DE3)pLysS cells by 19F-NMR assay
row,Structure (SMILES),Activity
1,O=C(CCCOc1ccc(Cl)cc1Cl)N/N=C/c1cccnc1F,Active

# System: not listed separately
# Test: Inhibition of recombinant human His-tagged RAD51 expressed in Escherichia coli Rosetta2(DE3)pLysS cells/BRCA2 (unknown origin) by ELISA
row,Structure (SMILES),pEC50
1,O=C(CCCOc1ccc(Cl)cc1Cl)N/N=C/c1ccc2nccnc2c1,4.46
2,O=C(CCCOc1ccc(Cl)cc1Cl)N/N=C/c1cc2c(s1)CCCC2,4.07
3,COc1ccc(/C=N/NC(=O)CCCOc2ccc(Cl)cc2Cl)cn1,3.96
4,O=C(CCCOc1ccc(Cl)cc1Cl)N/N=C/c1cccnc1F,4.72
5,O=C(CCCOc1ccc(Cl)cc1Cl)N/N=C/c1ccc(C(F)(F)F)nc1,4.74
6,COc1cccc(/C=N/NC(=O)CCCOc2ccc(Cl)cc2Cl)c1,4.22
7,CN(C)c1ccc(/C=N/NC(=O)[C@H](Cc2ccccc2)NC(=O)OC(C)(C)C)cc1,4.15
8,O=C(CCCOc1ccc(Cl)cc1Cl)N/N=C/c1ccc2cc[nH]c2c1,4.30
9,Cc1cccc(Cn2nc(C(C)(C)C)cc2C(=O)N/N=C/c2ccc(N(C)C)cc2)c1,3.89
10,O=C(CCCOc1ccc(Cl)cc1Cl)N/N=C/c1cccc(C(F)(F)F)c1,4.72
